Earlier results, collected in paper PMC4366302 (Organic & biomolecular chemistry, 2015).

Conditions: known inherent solubilities

| S0 (inherent solubility of drug) [µM] | SMILES |
| --- | --- |
| 4.5 ± 0.90 | O=C(NC1=CC(=O)[C@H]2O[C@H]2[C@H]1O)c1cc2ccccc2[nH]c1=O [PBS-1086] |
| 63 ± 3.5 | O=C1Cc2cc(CCN3CCN(c4nsc5ccccc45)CC3)c(Cl)cc2N1 [Ziprasidone, ziprasidone] |
